Measurements taken from patent US20230416330A1, “Optimized GIP Peptide Analogues” (Antag Therapeutics ApS, priority 2019, published 2023).
pIC50: −log10 of the molar value. Read-outs that look alike come from different tables or passages of the source. Starred links: 1 amine or outer side, 2 acyl side, 3 side chain; linkers in the order of their positions; H or OH if unused. Non-standard residues stand in square brackets, D forms with d. Residues, ends and D or L forms follow the SMILES beside them. Groups on a side chain read outwards from the residue. *: point of attachment. C18 diacid = O=C(O)CCCCCCCCCCCCCCCCC(=O)*; C16 diacid = O=C(O)CCCCCCCCCCCCCCC(=O)*; γGlu = O=C(O)[C@H](CCC(=O)[*:2])N[*:1]; Glutaryl = O=C(CCCC(=O)[*:2])[*:1]; Nle = CCCC[C@H](N)C(=O)O; AEEA = NCCOCCOCC(=O)O; Aib = CC(C)(N)C(=O)O

Experiments:
[1] = Physical stability: fibril formation in Thioflavin T (ThT) assay with agitation; format: physicochemical; details: 1 mg/ml, 25° C., agitation
How it was run: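 Read-out is continuous ThT fluorescence at 486 nm, with lag time taken where signal reaches 10% between pre- and post-transition baselines. Filtered samples (1, 5, 7.5 or 15 mg/ml; pH 7.4 phosphate buffer or NaOH-adjusted water) were stressed at 25° C. by orbital rotation at 300 rpm with one silica bead per well.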

[2] = Solubility by visual inspection of peptide solutions; format: physicochemical; details: 1 mg/ml, TFA, Phosphate (7.4)
How it was run: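 Solubility scored by eye: clear, colorless appearance after gentle mixing. Samples prepared at 1, 5, 7.5 or 15 mg/ml in either pH 7.4 water (NaOH-adjusted) or 50 mM sodium phosphate buffer, pH 7.4.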

human GIP receptor = biological target: T1, human GIP receptor (Homo sapiens, UniProt P48546); assay: cAMP assay Alternative 1 (CisBio assay), GIPR antagonism; format: cell-based; details: for cAMP antagonism % inhib: % inhibition of Emax
T1 construct: host or cells: HEK-293 cells, transient transfection (Lipofectamine 2000), cDNA in pCMV-Script vector
T1 sequence (P48546 22-466): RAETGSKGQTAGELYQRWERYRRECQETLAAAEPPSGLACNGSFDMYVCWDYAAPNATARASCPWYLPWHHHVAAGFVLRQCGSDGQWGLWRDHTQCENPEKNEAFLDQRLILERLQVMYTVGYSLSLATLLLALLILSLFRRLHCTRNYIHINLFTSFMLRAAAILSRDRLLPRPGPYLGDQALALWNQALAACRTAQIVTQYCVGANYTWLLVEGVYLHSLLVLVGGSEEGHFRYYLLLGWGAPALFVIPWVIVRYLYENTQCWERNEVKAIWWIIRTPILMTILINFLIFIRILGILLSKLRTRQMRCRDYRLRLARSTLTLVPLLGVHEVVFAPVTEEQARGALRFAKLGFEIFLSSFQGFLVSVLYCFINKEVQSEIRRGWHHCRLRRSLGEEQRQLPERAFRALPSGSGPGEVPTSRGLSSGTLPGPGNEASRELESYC
How it was run: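 HEK293 cells transiently transfected with hGIPR, compounds diluted in HBSS/HEPES/pluronic/casein with 500 uM IBMX; decrease in intracellular cAMP read by HTRF (665/620 nm) and converted via cAMP standard curve. pIC50 from four-parameter fit; agonism tested separately after 30 min at 37° C.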

| SMILES | Avr lag time (h) ([1]; TFA, Phosphate (7.4)) | Visual appearance [2] | cAMP antagonism % inhib (human GIP receptor; Table 2B) | pIC50 (human GIP receptor; Table 2B, HEK-293 cells transiently expressing hGIPR, agonist GIP1-42 at EC50, read-out: cAMP antagonism) | Avr lag time ([1]; Na, MilliQ (8)) | Avr lag time ([1]; TFA, Phosphate (7.4)) | pIC50 (human GIP receptor) |
| --- | --- | --- | --- | --- | --- | --- | --- |
| CCCC[C@H](NC(=O)C(C)(C)NC(=O)[C@@H](NC(=O)[C@H](CO)NC(=O)[C@H](Cc1ccc(O)cc1)NC(=O)[C@H](CCC(=O)O)NC(=O)[C@H](CO)NC(=O)[C@@H](NC(=O)[C@H](Cc1ccccc1)NC(=O)[C@@H](NC(=O)CNC(=O)[C@@H](N)CCC(=O)O)[C@@H](C)O)[C@@H](C)CC)[C@@H](C)CC)C(=O)N[C@@H](CCC(=O)O)C(=O)N[C@@H](CCCCN)C(=O)N[C@H](C(=O)N[C@@H](CCCCNC(=O)CCCCCCCCCCCCCCC(=O)O)C(=O)N[C@@H](CCC(N)=O)C(=O)N[C@@H](CCC(N)=O)C(=O)N[C@@H](CCC(=O)O)C(=O)N[C@@H](Cc1ccccc1)C(=O)N[C@H](C(=O)N[C@@H](CCC(=O)O)C(=O)N[C@@H](Cc1c[nH]c2ccccc12)C(=O)N[C@@H](CC(C)C)C(=O)N[C@@H](CC(C)C)C(=O)N[C@@H](C)C(=O)N[C@@H](CCC(N)=O)C(=O)N[C@@H](CCCCN)C(=O)N1CCC[C@H]1C(=O)N[C@@H](CO)C(=O)N[C@@H](CO)C(=O)NCC(=O)N[C@@H](C)C(=O)N1CCC[C@H]1C(=O)N1CCC[C@H]1C(=O)N1CCC[C@H]1C(=O)N[C@@H](CO)C(=O)O)C(C)C)[C@@H](C)CC [AT674] (H-EGTFISEYSI[Aib][Nle]EKIK(C16 diacid)QQEFVEWLLAQKPSSGAPPPS-OH; N-terminus assumed) | fnd (Fnd = fibrils not detected within experiment time (96 hours) with agitation.) | Clear | 93% | 9.35 | – | – | – |
| CC[C@H](C)[C@H](NC(=O)[C@H](CO)NC(=O)[C@H](Cc1ccc(O)cc1)NC(=O)[C@H](CC(=O)O)NC(=O)[C@H](CO)NC(=O)[C@@H](NC(=O)[C@H](Cc1ccccc1)NC(=O)[C@@H](NC(=O)CNC(=O)CCCC(=O)O)[C@@H](C)O)[C@@H](C)CC)C(=O)N[C@@H](C)C(=O)N[C@@H](CCSC)C(=O)N[C@@H](CC(=O)O)C(=O)N[C@@H](CCCCN)C(=O)N[C@H](C(=O)N[C@@H](CCCCNC(=O)CCCCCCCCCCCCCCC(=O)O)C(=O)N[C@@H](CCC(N)=O)C(=O)N[C@@H](CCC(N)=O)C(=O)N[C@@H](CC(=O)O)C(=O)N[C@@H](Cc1ccccc1)C(=O)N[C@H](C(=O)N[C@@H](CC(N)=O)C(=O)N[C@@H](Cc1c[nH]c2ccccc12)C(=O)N[C@@H](CC(C)C)C(=O)N[C@@H](CC(C)C)C(=O)N[C@@H](C)C(=O)N[C@@H](CCC(N)=O)C(=O)N[C@@H](CCCCN)C(=O)N1CCC[C@H]1C(=O)N[C@@H](CO)C(=O)N[C@@H](CO)C(=O)NCC(=O)N[C@@H](C)C(=O)N1CCC[C@H]1C(=O)N1CCC[C@H]1C(=O)N1CCC[C@H]1C(=O)N[C@@H](CO)C(=O)O)C(C)C)[C@@H](C)CC [AT677] (Glutaryl-GTFISDYSIAMDKIK(C16 diacid)QQDFVNWLLAQKPSSGAPPPS-OH) | – | Clear | 93% | – | <24 h | 16.5 ± 2.3 h | 9.35 |
| CC[C@H](C)[C@H](NC(=O)[C@H](CCCCN)NC(=O)[C@H](CC(=O)O)NC(=O)[C@H](CC(C)C)NC(=O)C(C)(C)NC(=O)[C@@H](NC(=O)[C@H](CO)NC(=O)[C@H](Cc1ccc(O)cc1)NC(=O)[C@H](CC(=O)O)NC(=O)[C@H](CO)NC(=O)[C@@H](NC(=O)[C@H](Cc1ccccc1)NC(=O)[C@@H](NC(=O)CNC(=O)[C@@H](N)CCC(=O)O)[C@@H](C)O)[C@@H](C)CC)[C@@H](C)CC)C(=O)N[C@@H](CCCCNC(=O)COCCOCCNC(=O)COCCOCCNC(=O)CC[C@H](NC(=O)CCCCCCCCCCCCCCCCC(=O)O)C(=O)O)C(=O)N[C@@H](CCC(N)=O)C(=O)N[C@@H](CCC(N)=O)C(=O)N[C@@H](CC(=O)O)C(=O)N[C@@H](Cc1ccccc1)C(=O)N[C@H](C(=O)N[C@@H](CCC(=O)O)C(=O)N[C@@H](Cc1c[nH]c2ccccc12)C(=O)N[C@@H](CC(C)C)C(=O)N[C@@H](CC(C)C)C(=O)N[C@@H](C)C(=O)N[C@@H](CCC(N)=O)C(=O)N[C@@H](CCCCN)C(=O)N1CCC[C@H]1C(=O)N[C@@H](CO)C(=O)N[C@@H](CO)C(=O)NCC(=O)N[C@@H](C)C(=O)N1CCC[C@H]1C(=O)N1CCC[C@H]1C(=O)N1CCC[C@H]1C(=O)N[C@@H](CO)C(=O)O)C(C)C [AT685] (H-EGTFISDYSI[Aib]LDKIK([AEEA-AEEA-γGlu-C18 diacid])QQDFVEWLLAQKPSSGAPPPS-OH; N-terminus assumed) | fnd (Fnd = fibrils not detected within experiment time (96 hours) with agitation.) | Clear | 83% | – | – | – | – |
| CC[C@H](C)[C@H](NC(=O)[C@H](CO)NC(=O)[C@H](Cc1ccc(O)cc1)NC(=O)[C@H](CCC(=O)O)NC(=O)[C@H](CO)NC(=O)[C@@H](NC(=O)[C@H](Cc1ccccc1)NC(=O)[C@@H](NC(=O)CNC(=O)[C@@H](N)CCC(=O)O)[C@@H](C)O)[C@@H](C)CC)C(=O)N[C@@H](C)C(=O)N[C@@H](CC(C)C)C(=O)N[C@@H](CCC(=O)O)C(=O)N[C@@H](CCCCN)C(=O)N[C@H](C(=O)N[C@@H](CCCCNC(=O)COCCOCCNC(=O)COCCOCCNC(=O)CC[C@H](NC(=O)CCCCCCCCCCCCCCCCC(=O)O)C(=O)O)C(=O)N[C@@H](CCC(N)=O)C(=O)N[C@@H](CCC(N)=O)C(=O)N[C@@H](CCC(=O)O)C(=O)N[C@@H](Cc1ccccc1)C(=O)N[C@H](C(=O)N[C@@H](CCC(=O)O)C(=O)N[C@@H](Cc1c[nH]c2ccccc12)C(=O)N[C@@H](CC(C)C)C(=O)N[C@@H](CC(C)C)C(=O)N[C@@H](C)C(=O)N[C@@H](CCC(N)=O)C(=O)N[C@@H](CCCCN)C(=O)N1CCC[C@H]1C(=O)N[C@@H](CO)C(=O)N[C@@H](CO)C(=O)NCC(=O)N[C@@H](C)C(=O)N1CCC[C@H]1C(=O)N1CCC[C@H]1C(=O)N1CCC[C@H]1C(=O)N[C@@H](CO)C(=O)O)C(C)C)[C@@H](C)CC [AT693] (H-EGTFISEYSIALEKIK([AEEA-AEEA-γGlu-C18 diacid])QQEFVEWLLAQKPSSGAPPPS-OH; N-terminus assumed) | fnd (Fnd = fibrils not detected within experiment time (96 hours) with agitation.) | Clear | 96% | – | – | – | – |
| CCCC[C@H](NC(=O)[C@H](C)NC(=O)[C@@H](NC(=O)[C@H](CO)NC(=O)[C@H](Cc1ccc(O)cc1)NC(=O)[C@H](CCC(=O)O)NC(=O)[C@H](CO)NC(=O)[C@@H](NC(=O)[C@H](Cc1ccccc1)NC(=O)[C@@H](NC(=O)CNC(=O)[C@@H](N)CCC(=O)O)[C@@H](C)O)[C@@H](C)CC)[C@@H](C)CC)C(=O)N[C@@H](CCC(=O)O)C(=O)N[C@@H](CCCCN)C(=O)N[C@H](C(=O)N[C@@H](CCCCNC(=O)COCCOCCNC(=O)COCCOCCNC(=O)CC[C@H](NC(=O)CCCCCCCCCCCCCCCCC(=O)O)C(=O)O)C(=O)N[C@@H](CCC(N)=O)C(=O)N[C@@H](CCC(N)=O)C(=O)N[C@@H](CCC(=O)O)C(=O)N[C@@H](Cc1ccccc1)C(=O)N[C@H](C(=O)N[C@@H](CCC(=O)O)C(=O)N[C@@H](Cc1c[nH]c2ccccc12)C(=O)N[C@@H](CC(C)C)C(=O)N[C@@H](CC(C)C)C(=O)N[C@@H](C)C(=O)N[C@@H](CCC(N)=O)C(=O)N[C@@H](CCCCN)C(=O)N1CCC[C@H]1C(=O)N[C@@H](CO)C(=O)N[C@@H](CO)C(=O)NCC(=O)N[C@@H](C)C(=O)N1CCC[C@H]1C(=O)N1CCC[C@H]1C(=O)N1CCC[C@H]1C(=O)N[C@@H](CO)C(=O)O)C(C)C)[C@@H](C)CC [AT694] (H-EGTFISEYSIA[Nle]EKIK([AEEA-AEEA-γGlu-C18 diacid])QQEFVEWLLAQKPSSGAPPPS-OH; N-terminus assumed) | fnd (Fnd = fibrils not detected within experiment time (96 hours) with agitation.) | Clear | 88% | – | – | – | – |
